Earlier results in US20110082867A1, “SYSTEM, METHOD, AND COMPUTER PROGRAM PRODUCT FOR ANALYZING DRUG INTERACTIONS” (priority 2009, published 2011).

Experiments:
[1] = target: CYP 2C9 (Homo sapiens, UniProt P11712); details: Gene CYP 2C9; involvement strength and type
[2] = target: CYP 2E1 (Homo sapiens, UniProt P05181); details: Gene CYP 2E1; involvement strength and type
[3] = target: T1, CYP 2A6 (Homo sapiens, UniProt P11509); details: Gene CYP 2A6; involvement strength and type
T1 sequence (P11509 1-494): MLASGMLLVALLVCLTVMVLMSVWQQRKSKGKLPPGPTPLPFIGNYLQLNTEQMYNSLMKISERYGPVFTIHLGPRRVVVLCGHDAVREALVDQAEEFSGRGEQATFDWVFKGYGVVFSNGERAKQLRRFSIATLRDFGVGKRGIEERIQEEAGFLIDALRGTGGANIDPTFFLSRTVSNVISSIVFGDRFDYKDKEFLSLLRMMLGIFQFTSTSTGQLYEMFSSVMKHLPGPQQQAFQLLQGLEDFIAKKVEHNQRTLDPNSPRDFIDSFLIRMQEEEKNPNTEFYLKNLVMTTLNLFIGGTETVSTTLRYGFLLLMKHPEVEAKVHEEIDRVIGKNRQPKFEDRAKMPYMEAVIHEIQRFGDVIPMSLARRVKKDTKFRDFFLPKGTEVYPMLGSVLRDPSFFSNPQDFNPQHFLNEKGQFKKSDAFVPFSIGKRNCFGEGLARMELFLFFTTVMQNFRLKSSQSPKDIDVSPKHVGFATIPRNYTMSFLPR

[4] = target: T2, CYP 1A2 (Homo sapiens, UniProt P05177); details: Gene CYP 1A2; involvement strength and type
T2 sequence (P05177 1-516): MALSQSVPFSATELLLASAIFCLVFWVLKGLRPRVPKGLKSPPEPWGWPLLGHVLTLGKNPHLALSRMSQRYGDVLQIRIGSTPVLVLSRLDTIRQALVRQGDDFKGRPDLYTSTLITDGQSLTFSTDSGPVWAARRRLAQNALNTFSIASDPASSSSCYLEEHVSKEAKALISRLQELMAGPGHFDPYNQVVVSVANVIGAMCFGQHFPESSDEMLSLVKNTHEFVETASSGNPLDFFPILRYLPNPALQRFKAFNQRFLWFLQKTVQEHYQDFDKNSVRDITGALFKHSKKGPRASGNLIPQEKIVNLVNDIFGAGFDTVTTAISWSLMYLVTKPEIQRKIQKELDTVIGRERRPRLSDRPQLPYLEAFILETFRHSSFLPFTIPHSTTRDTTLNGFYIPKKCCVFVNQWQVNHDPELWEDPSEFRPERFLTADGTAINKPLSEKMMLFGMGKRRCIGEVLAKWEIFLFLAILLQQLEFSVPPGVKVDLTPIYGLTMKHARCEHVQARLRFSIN

[5] = target: CYP 2D6 (Homo sapiens, UniProt P10635); details: Gene CYP 2D6; involvement strength and type
Chain of CYP 2D6 (P10635 whole entry): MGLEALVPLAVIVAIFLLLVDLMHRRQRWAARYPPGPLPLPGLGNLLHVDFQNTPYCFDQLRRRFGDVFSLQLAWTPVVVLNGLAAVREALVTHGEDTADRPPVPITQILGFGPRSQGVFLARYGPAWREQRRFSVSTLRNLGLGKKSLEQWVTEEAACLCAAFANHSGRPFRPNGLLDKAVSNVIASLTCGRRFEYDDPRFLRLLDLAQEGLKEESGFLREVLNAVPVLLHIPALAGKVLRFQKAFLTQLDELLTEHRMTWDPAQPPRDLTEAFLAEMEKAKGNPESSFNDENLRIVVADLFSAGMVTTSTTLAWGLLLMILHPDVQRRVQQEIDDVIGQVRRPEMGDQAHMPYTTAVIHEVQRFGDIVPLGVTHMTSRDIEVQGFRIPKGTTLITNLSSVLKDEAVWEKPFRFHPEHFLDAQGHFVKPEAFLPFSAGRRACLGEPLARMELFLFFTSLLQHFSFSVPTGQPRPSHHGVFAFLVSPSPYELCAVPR

[6] = target: CYP 3A4 (Homo sapiens, UniProt P08684); details: Gene CYP 3A4; involvement strength and type
Chain of CYP 3A4 (P08684 whole entry): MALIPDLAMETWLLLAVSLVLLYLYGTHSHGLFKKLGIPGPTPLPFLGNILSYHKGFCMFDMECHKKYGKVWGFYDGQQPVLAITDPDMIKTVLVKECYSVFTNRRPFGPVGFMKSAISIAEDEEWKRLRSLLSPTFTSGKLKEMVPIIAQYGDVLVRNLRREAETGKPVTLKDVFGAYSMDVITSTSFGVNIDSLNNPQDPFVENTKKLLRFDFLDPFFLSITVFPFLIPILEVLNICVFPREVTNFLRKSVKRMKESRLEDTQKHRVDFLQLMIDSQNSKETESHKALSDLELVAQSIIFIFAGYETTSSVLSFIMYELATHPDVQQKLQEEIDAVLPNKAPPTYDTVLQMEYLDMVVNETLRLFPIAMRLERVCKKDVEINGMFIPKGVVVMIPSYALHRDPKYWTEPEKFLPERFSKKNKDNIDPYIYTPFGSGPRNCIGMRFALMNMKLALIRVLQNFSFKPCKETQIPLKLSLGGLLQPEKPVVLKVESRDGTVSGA

Chain of CYP 2C9 (P11712 whole entry): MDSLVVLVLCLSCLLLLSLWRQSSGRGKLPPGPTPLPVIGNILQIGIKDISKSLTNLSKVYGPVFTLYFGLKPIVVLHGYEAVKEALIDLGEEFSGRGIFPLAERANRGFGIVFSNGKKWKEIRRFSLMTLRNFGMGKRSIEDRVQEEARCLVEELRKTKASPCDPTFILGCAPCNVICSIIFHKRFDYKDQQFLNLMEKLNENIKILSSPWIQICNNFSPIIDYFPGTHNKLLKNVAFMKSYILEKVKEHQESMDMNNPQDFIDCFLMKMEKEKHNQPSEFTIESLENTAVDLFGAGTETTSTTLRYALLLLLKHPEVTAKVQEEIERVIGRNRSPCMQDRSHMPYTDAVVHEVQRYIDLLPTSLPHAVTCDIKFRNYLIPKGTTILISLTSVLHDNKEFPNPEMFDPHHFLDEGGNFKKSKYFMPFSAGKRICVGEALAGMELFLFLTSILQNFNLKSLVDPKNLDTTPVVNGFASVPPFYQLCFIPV
Chain of CYP 2E1 (P05181 whole entry): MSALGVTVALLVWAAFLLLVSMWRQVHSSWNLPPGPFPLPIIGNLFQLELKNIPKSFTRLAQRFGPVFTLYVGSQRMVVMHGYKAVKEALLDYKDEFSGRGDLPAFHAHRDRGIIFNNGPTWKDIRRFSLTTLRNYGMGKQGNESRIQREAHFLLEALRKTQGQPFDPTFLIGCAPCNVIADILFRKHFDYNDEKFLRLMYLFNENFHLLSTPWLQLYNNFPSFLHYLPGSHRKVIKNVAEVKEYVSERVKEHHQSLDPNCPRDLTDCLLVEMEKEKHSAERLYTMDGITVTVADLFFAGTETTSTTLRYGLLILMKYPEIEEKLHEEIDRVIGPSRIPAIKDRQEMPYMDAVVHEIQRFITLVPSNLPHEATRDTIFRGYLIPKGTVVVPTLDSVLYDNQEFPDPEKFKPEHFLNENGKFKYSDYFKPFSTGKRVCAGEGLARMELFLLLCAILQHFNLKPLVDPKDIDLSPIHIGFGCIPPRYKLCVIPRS

Structure (SMILES): CC(=O)CC(c1ccccc1)c1c(O)c2ccccc2oc1=O (stereo not shown) [Warfarin]
- Drug Interaction [1]: Major Substrate

Structure (SMILES): CC(=O)Nc1ccc(O)cc1 [Acetaminophen]
- Drug Interaction [2]: Major Substrate
- Drug Interaction [3]: Minor Substrate
- Drug Interaction [4]: Minor Substrate
- Drug Interaction [5]: Minor Substrate
- Drug Interaction [6]: Minor Substrate

Structure (SMILES): COc1ccc2c3c1O[C@H]1[C@@H](O)C=C[C@H]4[C@@H](C2)N(C)CC[C@@]341 [Codeine]
- Drug Interaction [5]: Major Substrate
